Reference: patent US20030007993A1, “biomedical devices with antimicrobial cationic peptide and protein coatings” (priority 2000, published 2003)
No end group written: not given here.

B1: Secretory leukocyte protease inhibitor (protein, UniProt P03973 26-132, looked up)
Antileukoproteinase: SGKSFKAGVCPPKKSAQCLRYKKPECQSDWQCPGKKRCCPDTCGIKCLDPVDTPNPTRRKPGKCPVTYGQCLMLNPPNFCEMDGQCKRDLKCCMGMCGKSCVSPVKA
notes: cationic protein, source human

Assays:
[1] = test system: P. aeruginosa 6294; assay: bacterial adhesion (total counts) and viable counts on coated etafilcon A lenses; format: cell-based, Pseudomonas aeruginosa; parameters: key to Reduction v. control* / Reduction v. total**: “—” indicates no reduction in adhesion; conditions: for Reduction v. control* / Reduction v. total**: strain 6294
Experimental: (§1) For conducting total counts, etafilcon A lenses were removed from the manufacturers vials, washed three times in 1 ml PBS and then coated with various concentrations of cationic proteins/peptides overnight at 37° C. either individually or in combination. After incubation, the lenses were washed three times in PBS and 0.5 ml of 1×10^8 bacterial cells/ml was added to the lenses. After incubation at ambient temperature for 10 min, the lenses were washed three times in PBS to remove non-adherent or loosely adherent bacteria and stained with crystal violet for 1 min. The number of cells per lens was examined under the microscope. Five grids (0.005625 mm^2) per lens were counted and triplicate lenses for each treatment were assayed.
(§2) For conducting viable counts, etafilcon A lenses were removed from the manufacturers vials, washed three times in 1 ml PBS and then coated with various concentrations of cationic proteins/peptides overnight at 37° C. (either individually or in combination). After incubation, the lenses were washed three times in PBS and 0.5 ml of 1×10^8 bacterial cells/ml was added to the lenses. After incubation at ambient temperature for 10 min, the lenses were washed three times in PBS to remove non-adherent or loosely adherent bacteria. Lenses were then homogenized using 1 ml PBS and a small magnetic stirring bar (octagonal cross-section, 0.5″×0.125″) and stirred at maximum speed for one hour which was sufficient for lens disintegration. Serial dilutions were then made according to the technique of Miles and Misra and aliquots (20 μL) plated out on nutrient agar. After incubation overnight at 37° C., viable bacteria were determined and results expressed as colony forming units/mm^2 after calculation of the surface area of the lens (approximately 310 mm^2).
(§3) The lenses were incubated in concentrations of cationic proteins/peptides that were either effective in solution or the highest concentration available if there was no effect in solution. After rinsing, bacteria were added and numbers of cells analyzed as the total cells per mm^2 of the lens or the number of viable cells per mm^2 of the lens.

[2] = test system: Pseudomonas aeruginosa 6294; assay: growth of bacteria in solution with cationic proteins/peptides (slow growing in PBS, rapid growing in TSB); format: cell-based
Experimental: (§4) To assess the effect of the cationic proteins/peptides in solution against rapid growing bacterial cells, bacteria were cultured in Trypticase soy broth (“TSB”) overnight at 35° C. Aliquots (20 μl) of this cell suspension were then added to fresh TSB (10 ml). Different concentrations of the cationic proteins/peptides were added to the fresh broth and incubated for up to 48 h at 35° C. Samples were taken at different time points and the optical density at 660 nm measured as a measure of changes in bacterial numbers was measured.
(§5) To assess the effect of the cationic proteins/peptides in solution against slow growing bacterial cells, cells were grown as previously in TSB. The cells were then harvested by centrifugation and washed in phosphate buffered saline (PBS; NaCl 8 g/l; KCl 0.2 g/l; Na2HPO4 1.15 g/l; KH2PO4 0.2 g/l). The cells were then re-suspended to OD 0.1 (unless otherwise stated) at 660 nm in PBS, different concentrations of cationic proteins/peptides were added and incubated for up to 48 h at 35° C. Samples were taken a different points and numbers of bacteria analyzed using the Miles and Misra technique (i.e. numbers that are viable after plating dilutions onto nutrient agar plates).
(§6) The results obtained in solution for all cationic proteins and peptides studied are shown on Table 3. Most protein/peptides were screened against only P. aeruginosa 6294 and S. aureus 31.
(§7) In Table 3, slow growing cells are those re-suspended in PBS with cationic protein/peptide and rapid growing are those re-suspended in TSB plus cationic protein/peptide. The numbers in μg/ml are in concentration showing peak activity. A “−” sign indicates no reduction in bacterial growth, a “+” sign indicates a 1 to 50% reduction in growth, a “++” sign indicates a 51 to 89% reduction in growth, a “+++” sign indicates a 90 to 98% reduction in growth a “++++” sign indicates a greater than 98% reduction in growth.

[3] = test system: S. aureus 31; assay: bacterial adhesion (total counts) and viable counts on coated etafilcon A lenses; format: cell-based, Staphylococcus aureus; parameters: key to Reduction v. control* / Reduction v. total**: “—” indicates no reduction in adhesion; conditions: for Reduction v. control* / Reduction v. total**: strain Saur 31; for Reduction v. control*: coated etafilcon A lens compared to adhesion control lens not coated; for Reduction v. total**: compared to the number of total bacterial cells adhered to coated lens (growth of adhered bacteria)
Experimental: as §1, §2, §3

[4] = test system: Staphylococcus aureus Saur31; assay: growth of bacteria in solution with cationic proteins/peptides (slow growing in PBS, rapid growing in TSB); format: cell-based; conditions: Saur 31
Experimental: as §4, §5, §6, §7

[5] = test system: gram-positive and gram-negative bacteria; assay: growth of bacteria in solution (summary statement); format: cell-based; conditions: in words
Experimental: as §4, §5, §6

[6] = test system: Staphylococcus intermedius Sint 2; assay: growth of bacteria in solution with cationic proteins/peptides (slow growing in PBS, rapid growing in TSB); format: cell-based; parameters: key: A “−” sign indicates no reduction in bacterial growth; —: A “−” sign indicates no reduction in bacterial growth; a “+” sign indicates a 1 to 50% reduction in growth; a “++” sign indicates a 51 to 89% reduction in growth; a “+++” sign indicates a 90 to 98% reduction in growth; a “++++” sign indicates a greater than 98% reduction in growth
Experimental: as §4, §5, §6, §7

[7] = test system: Serratia marcesens Smar5; assay: as above; format: cell-based; parameters: key: A “−” sign indicates no reduction in bacterial growth; —: A “−” sign indicates no reduction in bacterial growth; a “+” sign indicates a 1 to 50% reduction in growth; a “++” sign indicates a 51 to 89% reduction in growth; a “+++” sign indicates a 90 to 98% reduction in growth; a “++++” sign indicates a greater than 98% reduction in growth; conditions: Smar 5
Experimental: as §4, §5, §6, §7

[8] = test system: Pseudomonas aeruginosa Paer1; assay: as above; format: cell-based; conditions: Paer 1; 24 h, 15 μg/ml slow growing
Experimental: as §4, §5, §6, §7

[9] = test system: bacteria; assay: surface coatings: adherence and growth of bacteria on the device (summary statements); format: cell-based; conditions: coated lenses, in words; for viability of adhered cells: compared to the cells adhered to the uncoated lens
Experimental: as §1, §2, §3

[10] = test system: Pseudomonas aeruginosa 6206; assay: growth of bacteria in solution with cationic proteins/peptides (slow growing in PBS, rapid growing in TSB); format: cell-based; parameters: key: A “−” sign indicates no reduction in bacterial growth; —: A “−” sign indicates no reduction in bacterial growth; a “+” sign indicates a 1 to 50% reduction in growth; a “++” sign indicates a 51 to 89% reduction in growth; a “+++” sign indicates a 90 to 98% reduction in growth; a “++++” sign indicates a greater than 98% reduction in growth
Experimental: as §4, §5, §6, §7

[11] = coated etafilcon A lens compared to adhesion control lens not coated
[12] = compared to the number of total bacterial cells adhered to coated lens (growth of adhered bacteria)
[13] = slow growing (PBS), 125-1000 μg/ml

Molecule | Reduction v. control* [1, 11] | Reduction v. total** [1, 12] | Reduction v. control* [3] | Reduction v. total** [3] | other results
Defensin HNP-1 | — | — | — | — | reduction in bacterial growth ([2]; 2 μg/ml): +(2 μg/ml) (a “+” sign indicates a 1 to 50% reduction in growth)
Magainin 1 (GIGKFLHSAGKFGKAFVGEIMKS; Magainin-1; UniProt P11006 37-59, looked up) [cationic peptide, source frog] | — | — | — | — | 
Cecropin P1 | — | — | — | — | 
Melittin-1-13 AA | — | — | — | — | reduction in bacterial growth ([2]; 24h, 1000 μg/ml): ++(24h, (a “++” sign indicates a 51 to 89% reduction in growth); reduction in bacterial growth ([4]; 48h, 24h, 1000 μg/ml): ++(48h, (a “++” sign indicates a 51 to 89% reduction in growth)
Magainin 2 | — | — | — | — | reduction in bacterial growth ([2]; 24 h, 400 μg/ml, slow growing): +++(24 h, (a “+++” sign indicates a 90 to 98% reduction in growth)
Transferrin |  |  |  |  | Reduction v. control* ([1]; 125 μg/ml, compared to adhesion control lens not coated): —; Reduction v. total** ([1]; 125 μg/ml, compared to total bacterial cells adhered to coated lens): —
Melittin | 70% |  | 60% |  | preventing the growth of gram-positive and gram-negative bacteria in solution [5]: most efficacious; reduction in bacterial growth ([6]; 24 h, 15 μg/ml rapid growing): ++++(24 h, (a “++++” sign indicates a greater than 98% reduction in growth); reduction in bacterial growth ([6]; 24 h, 15 μg/ml slow growing): ++++(24 h, (a “++++” sign indicates a greater than 98% reduction in growth); reduction in bacterial growth ([7]; growth state not given, 15 μg/ml): —; reduction in bacterial growth ([2]; 24 h, 15 μg/ml slow growing): ++(24 h, (a “++” sign indicates a 51 to 89% reduction in growth); reduction in bacterial growth [8]: ++++(24 h, (a “++++” sign indicates a greater than 98% reduction in growth); reduction in bacterial growth ([4]; 15 μg/ml rapid growing): ++++ (a “++++” sign indicates a greater than 98% reduction in growth); reduction in bacterial growth ([4]; 24 h, 15 μg/ml slow growing): ++++(24 h, (a “++++” sign indicates a greater than 98% reduction in growth); initial adhesion of S. aureus 31 ([3]; coated lenses, in words): reduced initial adhesion
β Defensin 1 (DHYNCVSSGGQCLYSACPIFTKIQGTCYRGKAKCCK; ends and bridges not checked; cysteine pairing not given here; UniProt P60022 33-68, looked up) [cationic peptide, source human] | — | — | — | — | reduction in bacterial growth ([2]; 24h, 60 μg/ml): ++(24h, (a “++” sign indicates a 51 to 89% reduction in growth)
Cecropin A | — | 93% | — | — | viability of adhered cells [9]: significant reduction in the viability; total adhesion of bacteria [9]: did not reduce the total adhesion
Nisin |  |  | — | 50% | viability of adhered cells [9]: significant reduction in the viability; total adhesion of bacteria [9]: did not reduce the total adhesion; reduction in bacterial growth ([2]; 2 μg/ml): ++(2 μg/ml) (a “++” sign indicates a 51 to 89% reduction in growth)
Protamine | 80% | 80% | — | — | preventing the growth of gram-positive and gram-negative bacteria in solution [5]: most efficacious; reduction in bacterial growth [10, 13]: ++++(slow (a “++++” sign indicates a greater than 98% reduction in growth); reduction in bacterial growth ([6]; rapid growing (TSB), 125-1000 μg/ml): −(rapid; reduction in bacterial growth [6, 13]: ++++ (slow (a “++++” sign indicates a greater than 98% reduction in growth); reduction in bacterial growth ([7]; 1000 μg/ml slow growing): ++++(1000 (a “++++” sign indicates a greater than 98% reduction in growth); reduction in bacterial growth ([7]; <1000 μg/ml slow growing): −(<1000; viability of the cells on the coated lenses ([1]; P. aeruginosa 6294, in words): reduced the viability; adhesion of P. aeruginosa 6294 to the lenses ([1]; coated lenses, in words): significantly reduced the adhesion
B1 | — | — | — | — | reduction in bacterial growth ([10]; growth state not given, 10-100 μg/ml): —
